# In the NIST ThermoML archive (doi:10.1016/j.jct.2015.05.002):
# ± gives the expanded uncertainty stated by the source.
# Experiment: mn = molality of the nth substance listed, in mol/kg
# Details: 101.3 kPa, Liquid; for speed of sound: Frequency=3 MHz, Sing-around technique in a fixed-path interferometer; for mass density: Vibrating tube method
smiles,measurement,setting,value
O=C[O-].[NH3+]CCCO [3-hydroxypropylammonium formate] + O,speed of sound,"293.15 K, m1 = 0.1",1489.6 ± 2.7 m/s
same,speed of sound,"293.15 K, m1 = 0.21",1496.4 ± 2.7 m/s
same,speed of sound,"293.15 K, m1 = 0.3",1502.6 ± 2.7 m/s
same,speed of sound,"293.15 K, m1 = 0.42",1510.7 ± 2.7 m/s
same,mass density,"293.15 K, m1 = 0.1",999.816 ± 0.65 kg/m3
same,mass density,"293.15 K, m1 = 0.21",1001.61 ± 0.65 kg/m3
same,mass density,"293.15 K, m1 = 0.3",1003.08 ± 0.65 kg/m3
same,mass density,"293.15 K, m1 = 0.42",1005.09 ± 0.66 kg/m3
same,speed of sound,"298.15 K, m1 = 0.21",1508.3 ± 2.7 m/s
same,speed of sound,"298.15 K, m1 = 0.42",1520 ± 2.7 m/s
same,mass density,"298.15 K, m1 = 0.21",1000.35 ± 0.65 kg/m3
same,mass density,"298.15 K, m1 = 0.42",1003.64 ± 0.65 kg/m3
same,speed of sound,"303.15 K, m1 = 0.21",1519.6 ± 2.7 m/s
same,speed of sound,"303.15 K, m1 = 0.42",1530.5 ± 2.7 m/s
same,mass density,"303.15 K, m1 = 0.21",998.914 ± 0.65 kg/m3
same,mass density,"303.15 K, m1 = 0.42",1002.15 ± 0.65 kg/m3
same,speed of sound,"308.15 K, m1 = 0.21",1529.4 ± 2.7 m/s
same,speed of sound,"308.15 K, m1 = 0.42",1540.3 ± 2.7 m/s
same,mass density,"308.15 K, m1 = 0.21",997.259 ± 0.65 kg/m3
same,mass density,"308.15 K, m1 = 0.42",1000.45 ± 0.65 kg/m3
same,speed of sound,"313.15 K, m1 = 0.21",1538 ± 2.7 m/s
same,speed of sound,"313.15 K, m1 = 0.42",1547.9 ± 2.7 m/s
same,mass density,"313.15 K, m1 = 0.21",995.402 ± 0.64 kg/m3
same,mass density,"313.15 K, m1 = 0.42",998.562 ± 0.65 kg/m3
same,speed of sound,"318.15 K, m1 = 0.21",1545 ± 2.7 m/s
same,speed of sound,"318.15 K, m1 = 0.42",1554.3 ± 2.7 m/s
same,mass density,"318.15 K, m1 = 0.21",993.291 ± 0.64 kg/m3
same,mass density,"318.15 K, m1 = 0.42",996.504 ± 0.64 kg/m3
